Molecules are shown by their SMILES.

Broadly, the melting point is the temperature of the solid-liquid transition. On to `O=S(=O)(c1ccc(Oc2cncc(Br)c2)cc1)N1CCCC1`, for which the melting point came to 148 °C. `CCc1c(C(F)(F)F)noc1NS(=O)(=O)c1ccccc1` returned a melting point of 105 to 106 °C. The value for `C#CCN(C(=O)c1cnccc1C(F)(F)F)S(=O)(=O)c1cccc(Cl)c1` was 82 to 85 °C; that for `CCCC1(C)C(=O)N(CCl)S(=O)(=O)N1C` (stereo not drawn) was 99 to 100 °C. The value for `CC(=O)c1cc(-c2cccc(F)c2)c(=O)n2c1-c1sccc1CC2` was 109 to 110 °C; that for `Cc1cc(=O)[nH]c(SCc2ccccc2N(C)C)n1` was 152 to 154 °C. Then `CN(C)c1ccc(Br)cn1`, with 39 to 41 °C; and `CN(C)CCCC#Cc1cnc(N)nc1`, with 126 to 127 °C.

The compound `Cc1ccc(Br)c(Cl)c1NS(=O)(=O)c1ccccc1C(=O)O` gave a melting point of 238 to 242 °C. The value for `COc1ccc(-c2cccc3c2OC(COS(=O)(=O)c2ccc(C)cc2)C3)cc1` (stereo not drawn) was 116 to 117 °C; that for `CNC(=S)NCc1nc(C(C)C)c(Sc2cc(Cl)cc(Cl)c2)n1C` was 188 to 190 °C. Take `COc1ccc(-c2cc(C(N)=O)c(=O)n(CC3CCCC3)n2)cc1`: the melting point fell in the range of 182 to 183 °C. On to `Oc1ccc2c(c1)COc1c-2cc2ccc(O)cc2c1-c1ccc(F)c(F)c1`, for which the melting point lay in the range of 235 to 237 °C. As to `CC1(C)C=C(c2ccccn2)c2cc(-c3ccccc3)ccc2OC1`, the melting point is 115 to 120 °C. As to `CC(C)(C)OC(=O)c1ccc(OCCNC(=O)C2Cc3ccccc3N2S(=O)(=O)c2ccc(-c3ccc(F)cc3F)cc2)cc1` (stereo not drawn), the melting point came out at 80 °C.

In the case of `COc1cc(CBr)c(OC)cc1/C=C/c1cc(OC)c(CBr)cc1OC`, the melting point lay within 165 to 167 °C.

`CCCNC(=O)C1CCCN1C(=O)OCc1ccccc1` (stereo not drawn) displayed a melting point of 74 to 75 °C. As for `CCN(CC)C(=O)/C(=C/C=C/c1cc2ccccc2[nH]1)OC`, the melting point lay within 141 to 143 °C. Then `COC1CCN(c2cc3c(cc2C#Cc2ccccc2)NC(=O)CC(c2cccc(C#N)c2)=N3)CC1`, with 250 to 251 °C. The value for `C=CCN1CCc2ccc(C(=O)CCC(=O)N3CCC(c4ccc(Cl)cc4)CC3)cc2CC1` was 136 to 137 °C; that for `CN1CCN(c2ccc3cn[nH]c3n2)CC1` was 196 to 197 °C; that for `CCc1cnc(N2CCN(C(=O)c3ccccc3NC3=c4ccccc4=NCN3c3ccccc3)CC2)nc1` was 204 to 205 °C. Then `CN(C)CCOc1ccc(C(=C(c2ccccc2)C(F)(F)F)c2ccc(O)cc2)cc1`, with 149 to 155 °C; and `Cc1cc2cc(C3CCNCC3)oc2cc1C`, with 77 to 78 °C. The compound `O=C(N[C@@H]1C[C@H]1c1ccccc1)c1ccc2cnccc2n1` (relative stereo) yielded a melting point of 123 to 124 °C. Then `NS(=O)(=O)C1=CC2=C(OCCO)CCSC2S1` (stereo not drawn), with 110 to 113 °C.

Turning to `CC(C)NC1=NS(=O)(=O)c2sc(Br)cc2N1`, the melting point was found to be 279 °C. In turn, `N#Cc1c(-c2ccccc2)c(-c2ccccc2)nn(CC(=O)NN)c1=O` registered a melting point of 191 to 192 °C.

As for `O=C(c1ccccc1)N1Cc2c(-c3noc(C4CC4)n3)ncn2-c2ccccc21`, the melting point lay within 198 to 199 °C.

As for `CC1([N+](=O)[O-])C(c2ccco2)CC(=C(C#N)C#N)CC1c1ccco1` (stereo not drawn), the melting point was determined as 192 °C. Then `CN1CCC(OC2c3ccccc3C(=O)N2c2ccc3ccc(Cl)nc3n2)CC1` (stereo not drawn), with 204 °C; and `O=C(O)COc1cc2c(=O)cc(C(=O)O)[nH]c2ccc1=O`, with above 270 °C; and `Cn1cc(C2=C(c3cccc(NC(O)CCO)c3)C(=O)NC2=O)c2ccccc21` (racemic), with 97.5 to 101 °C. The value for `CC(=O)CC(=O)N1CC(c2ccccc2)c2ccccc21` (stereo not drawn) was 88 to 89 °C; that for `COC(=O)c1csc(C)c1N` was 78 °C; that for `Cc1nn(-c2cc(CC(Cl)C(=O)NC3CC3)c(Cl)cc2Cl)c(=O)n1C(F)F` (stereo not drawn) was 139 to 143 °C. Then `CCCCOC(=O)COc1ccc(C(=O)Nc2ccccc2Sc2cccc(C)c2-c2nnn[nH]2)cc1`, with 150 to 151 °C. `O=C(Nc1ccc(Oc2ccnc(NC3CC3)n2)c2ccccc12)c1cc(F)cc(N2CCCCC2)c1` had a melting point of 157 to 158 °C. The value for `COc1cc(OC)nc(-n2c(SC)nc3ccccc32)n1` was 135 to 137 °C; that for `CCNC(=O)Nc1nc2nc(NCCCN(C)C)ncc2cc1-c1c(C)cccc1C` was 64 to 70 °C; that for `COc1ccc(N2CCN(c3c(C)c(C)c4c(c3C)CC(C)O4)CC2)c(OC)c1` (stereo not drawn) was 142 to 144 °C.

The compound `CCOCc1nc2c(N)nc3ccccc3c2n1CC(C)(O)CC` (stereo not drawn) had a melting point of 189 to 191 °C. Then `COCCOc1ccc(COC(=O)NS(=O)(=O)NCC(C)C)c(Oc2ncc(C(F)(F)F)cc2Cl)c1`, with 160 to 161 °C. `CCC(C)C=C(C(=O)c1ccc(Cl)cc1Cl)n1cncn1` (stereo not drawn) gave a melting point of 101 to 104 °C.

Compound `Oc1cc(Br)c2oc(-c3cc(F)c(O)c(F)c3)nc2c1` registered a melting point of 270 to 272 °C. The value for `COc1cccc(C2CC(=O)N(c3ccnc(NC(=O)NCc4ccccn4)c3)C2)c1` (stereo not drawn) was 189 to 190 °C; that for `Oc1cc(O)cc(-c2ccccc2)c1` was 157 to 158 °C. Then `CCOC(=O)Cn1c2c(c3ccc(Cl)c(Cl)c31)CCN(C(=O)OC(C)(C)C)CC2`, with 132 to 135 °C; and `CCN(C)C(=O)c1cnn(C)c1C(=O)Nc1ccn2nc(N3CCOCC3)nc2c1`, with 201 to 203 °C. Consider `COc1ccc(NC(C)=C(C#N)C#N)cc1`, for which the melting point was in the range of 254 to 255 °C. The value for `CC1(C)SC2C(NC(=O)CNC(=O)c3ccccc3)C(=O)N2C1c1nnn[nH]1` (stereo not drawn) was 85 to 93 °C; that for `O=C(c1ccc([N+](=O)[O-])cc1)N1CCCCc2ncccc21` was 231 to 233 °C; that for `CCOC(=O)Cc1nn(Cc2ccc(Cl)c(Cl)c2)c(=O)c2c(C)cccc12` was 134 to 137 °C.

`NC(=O)c1ccc2c(c1)CCCN2CCN1CC=C(c2c[nH]c3cc(F)ccc23)CC1` displayed a melting point of 130 to 133 °C. Then `CCOCCn1cc2c(C3C(=O)Nc4ccc(Cl)cc43)nc(NCc3ccncc3)nc2n1` (stereo not drawn), with 298 to 299 °C; and `O=C(NCCn1c2ccccc2c(=O)c2ccccc21)OCc1ccccc1`, with 224 to 226 °C. The compound `COC(=O)CNC(=O)c1ccc(C(=O)NS(=O)(=O)c2ccc(OC)cc2)cn1` returned a melting point of 150 to 152 °C.

Turning to `Cc1cc(=O)oc2nn(Cc3ccc(Cl)cc3)c(C)c12`, the melting point lay within 149 to 152 °C. The value for `NC(=O)CCCCC1(c2ccccc2)CC(O)=CC(=O)O1` (stereo not drawn) was 173 to 174 °C; that for `CCn1cc(C(=O)O)c(=O)c2cc(F)c(N3CCNC(c4cc(C)cs4)C3)cc21` (stereo not drawn) was 230 °C.

On to `CC(C)(C)OC(=O)c1c(N)sc2c1CCOC2CN1C(=O)c2ccccc2C1=O` (stereo not drawn), for which the melting point lay in the range of 227 to 230 °C. The value for `CC(=O)OC1CSC(Oc2cncc(-c3ccc(F)cc3C)c2)C(OC(C)=O)C1OC(C)=O` (stereo not drawn) was 120 °C; that for `O=C(NO)[C@H](CNS(=O)(=O)c1ccc(OCc2ccccc2)cc1)N1CCOCC1` was 142 °C; that for `CN1C(=O)CN=C(c2ccccc2F)c2cc(NC(=O)NCCCl)ccc21` was 240 °C. With `COC(=O)C(=CC(=CN(C)C)c1ccc(Cl)cc1[N+](=O)[O-])[N+](=O)[O-]`, the melting point is 193 to 197 °C. Then `CCOC(=O)/C=C/C=C/c1ccc(CCc2nc(-c3ccccc3)oc2C)cc1`, with 82 to 83 °C; and `CC1(C)CC(=O)c2c(NCCCn3ccnc3)sc(-c3cc[nH]n3)c2C1`, with 85 °C.

Turning to `CCSC1c2cccc(O)c2C(=O)c2c(O)cccc21`, the melting point was in the range of 117 to 118 °C.

Turning to `O=C1Nc2cc(-n3nnn(CCCF)c3=O)c(F)cc2CC1Cl` (stereo not drawn), the melting point was 114 to 118 °C. Then `O=C(O)Cc1cccc2c(-c3ccc(Cl)cc3)noc12`, with 110 to 125 °C; and `CNC(=O)Oc1ccc(CN2CCN(c3ccc(C(C)=O)cc3)CC2)cc1OC`, with 120 to 123 °C. On to `Cc1oc(-c2cc(C(C)(C)C)c(O)c(C(C)(C)C)c2)nc1CC(=O)O`, for which the melting point was in the range of 205 to 206 °C. Then `N#Cc1[nH]n(-c2ccccc2)c(=O)c1N=Nc1cc(S(=O)(=O)Cl)ccc1Cl`, with 115 to 120 °C; and `COc1ccc(C(Cc2ccncc2)c2ccc(CO)cc2)cc1OC1CCCC1` (stereo not drawn), with 179 to 182 °C. In turn, `Cn1c(COc2ccc(CC3SC(=O)NC3=O)cc2)nc2ccc(Oc3ccc(NC(=O)c4ccccc4)cc3)cc21` (stereo not drawn) yielded a melting point of 200 to 204 °C. `CCC1CC2C3CCC4=CC(=O)CCC4(CSC)C3CCC2(C)C1=O` (stereo not drawn) showed a melting point of 83 °C. Turning to `N#CCc1ccc(C2=CCCCC2)cc1`, the melting point was in the range of 71 to 73 °C. Turning to `C[C@@H]1Cc2ccsc2[C@H](C)N1CCNC(=O)c1ccccc1N` (relative stereo), the melting point is 89 to 94 °C.

Regarding `CN1C(=O)C(c2ccccc2)(C2CCNCC2)N=C1N` (stereo not drawn), the melting point was in the range of 269 to 271 °C.

For the compound `Nc1cccnc1C(=O)NO`, the melting point is 131 to 133 °C. `O=c1[nH]c2ccccc2n1C/C=C/CCl` gave a melting point of 120 °C. On to `CC(CBr)=C(C(=O)OCc1ccccc1)N1C(=O)C(Br)(Br)C1Br` (stereo not drawn), for which the melting point was in the range of 84 to 85 °C.

`CS(=O)(=O)c1ccc(-c2[nH]nc(C(=O)CCCO)c2-c2ccc(C#N)cc2)cc1` gave a melting point of 169 to 171 °C. The compound `COc1ccc(C(=O)N2CCC(N3CCc4ccccc43)c3ccccc32)cc1OC` (stereo not drawn) gave a melting point of 121 to 123 °C. Then `CCn1cc(C(=O)O)c(=O)c2cc(F)c(C3NCC4CCC3N4C)c(F)c21` (stereo not drawn), with 184 to 187 °C; and `O=C(O)c1ccc2ccc(S)cc2c1`, with 211 to 216 °C; and `Cc1cc(F)ccc1-c1nc(OCCO)nc2c1CNC(=O)N2c1c(F)cccc1F`, with 172 to 175 °C. As to `CCOC(=O)COc1ccc(S(=O)(=O)CCNS(=O)(=O)c2ccccc2)cc1`, the melting point fell in the range of 86.5 to 88 °C.
